We go through four compounds from ChEMBL document CHEMBL2406975, “β-Secretase Inhibitors for the Treatment of Alzheimer's Disease and Down's Syndrome” (ACS Med Chem Lett, 2013).

In this experiment the target is Beta-secretase 1 (Homo sapiens, UniProt P56817). The experiment in a line: Inhibition of BACE1 in human SH-SY5Y cells assessed as release of sAPPbeta after 17 hrs. The class given is cell-based.
Beta-secretase 1, sequence (P56817 whole entry): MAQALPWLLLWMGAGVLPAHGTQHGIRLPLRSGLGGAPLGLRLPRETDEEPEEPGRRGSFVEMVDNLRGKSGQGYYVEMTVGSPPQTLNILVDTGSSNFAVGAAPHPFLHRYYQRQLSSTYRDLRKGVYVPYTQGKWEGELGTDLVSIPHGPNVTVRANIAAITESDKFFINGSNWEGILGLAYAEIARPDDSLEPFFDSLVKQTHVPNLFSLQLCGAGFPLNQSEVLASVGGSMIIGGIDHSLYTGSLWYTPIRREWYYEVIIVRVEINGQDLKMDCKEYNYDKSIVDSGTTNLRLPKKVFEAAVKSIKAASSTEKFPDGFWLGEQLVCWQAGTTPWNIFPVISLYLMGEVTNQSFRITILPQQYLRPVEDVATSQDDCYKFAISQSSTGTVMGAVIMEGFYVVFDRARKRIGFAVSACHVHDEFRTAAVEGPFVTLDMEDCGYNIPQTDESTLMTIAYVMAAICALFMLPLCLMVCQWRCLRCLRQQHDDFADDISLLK
Usually IC50 stands for the concentration that gives 50% inhibition. For the compound `CC1(C)Cc2ccc(-c3cncnc3)cc2C12C=C(F)C(N)=N2` (centres undefined), the IC50 amounted to 168 nM.
On to `CC#Cc1cncc(-c2ccc3c(c2)C2(C=C(F)C(N)=N2)[C@]2(CC[C@@H](OC)CC2)C3)c1` (some centres undefined), for which the IC50 was 1.1 nM.
The figure for `CC#Cc1cncc(-c2ccc3c(c2)C2(C=C(F)C(N)=N2)[C@]2(CC[C@H](OC)CC2)C3)c1` (some centres undefined) is 0.031 nM; for `CO[C@H]1CC[C@]2(CC1)Cc1ccc(-c3cncnc3)cc1C21C=C(F)C(N)=N1` (some centres undefined) it is 1.1 nM.
